For this assay, the system named is Streptococcus pyogenes (ATCC# 97-03 14289). The experiment in a line: Anti-microbial screen (percent inhibition of growth, OD 570 nm). In kind it is cell-based. To be noted: Conc 0.1776 mg ml. In short, it runs like this:
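Frozen stock diluted into 2×THB, compounds in DMSO added at time zero. OD 570 nm read at 0 h to correct for insoluble or coloured compounds and again at 4 h. Percent growth inhibition calculated against blank-corrected solvent controls.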

Setting [1] is: Spy4H: Streptococcus pyogenes, read at 4 hours, OD 570 nm.
[2] abbreviates: Streptococcus pyogenes, Assay Spy4H, plates read at 570 nm at 0 time and at 4 hours.

Inhibition of growth data for 37 molecules are collected here from patent publication US20040010036A1, “N,N, -Substituted s-Aryl-Isothioureas, N,N,N, -Substituted s-Aryl-Isothioureas and combinatorial libraries thereof” (priority 2002, published 2004).

In the case of `COCCN(Cc1ccc(O)cc1)/C(=N\c1ccc(Cl)c([N+](=O)[O-])c1)Sc1ccc(C)cc1C` [Cmpd 1063], at 177.6 µg/mL the inhibition of growth under setting [1] was 73.8%.

The molecule `COCCN(Cc1ccc(O)cc1)/C(=N\c1ccccc1F)Sc1ccc(C)cc1C` [Cmpd 1067] came in with an inhibition of growth at 177.6 µg/mL under setting [2] of 53%. Consider `COCCN(Cc1ccc(O)cc1)/C(=N\c1ccc(Cl)c(C(F)(F)F)c1)Sc1ccc(C)cc1C` [Cmpd 1073], for which the inhibition of growth at 177.6 µg/mL under setting [2] is 54.4%. Still for that read-out and setting: for `COCCN(Cc1ccc(O)cc1)/C(=N\c1ccc(F)c(F)c1)Sc1ccc(C)cc1C` [Cmpd 1076] the value was 55.1%.

On to `COc1cccc(CN(Cc2ccc(O)cc2)/C(=N/c2cc(Cl)cc(Cl)c2)Sc2cccc(C)c2)c1` [Cmpd 1093], for which 177.6 µg/mL produced 87.1% inhibition of growth under setting [1].

Turning to `COc1cccc(CN(Cc2ccc(O)cc2)/C(=N/c2ccc(Cl)c([N+](=O)[O-])c2)Sc2cccc(C)c2)c1` [Cmpd 1103], the inhibition of growth at 177.6 µg/mL under setting [1] was determined as 59.5%. The same measure, in the same setting: then `COc1cccc(CN(Cc2ccc(O)cc2)/C(=N/c2cc(C)ccc2OC)Sc2cccc(C)c2)c1` [Cmpd 1109], with 57.8%; and `COc1cccc(CN(Cc2ccc(O)cc2)/C(=N/c2ccc(Cl)c(C(F)(F)F)c2)Sc2cccc(C)c2)c1` [Cmpd 1113], with 64.3%. The molecule `Cc1cccc(S/C(=N/c2ccc(C(F)(F)F)cc2)N(Cc2ccccc2)Cc2cccc(O)c2)c1` [Cmpd 1127] showed an inhibition of growth at 177.6 µg/mL under setting [1] of 88.6%. `Cc1cccc(S/C(=N\c2ccc(Cl)c(Cl)c2)N(Cc2ccccc2)Cc2cccc(O)c2)c1` [Cmpd 1128] registered an inhibition of growth at 177.6 µg/mL under setting [2] of 51.5%. As to `Cc1cccc(S/C(=N\c2cc(Cl)cc(Cl)c2)N(Cc2ccccc2)Cc2cccc(O)c2)c1` [Cmpd 1133], the inhibition of growth at 177.6 µg/mL under setting [1] stood at 70.1%. Take `Cc1cccc(S/C(=N\c2ccc(F)c(Cl)c2)N(Cc2ccccc2)Cc2cccc(O)c2)c1` [Cmpd 1134]: at 177.6 µg/mL the inhibition of growth under setting [2] was 53.6%.

With `Cc1cccc(S/C(=N/c2ccc(Cl)c([N+](=O)[O-])c2)N(Cc2ccccc2)Cc2cccc(O)c2)c1` [Cmpd 1143], the inhibition of growth at 177.6 µg/mL under setting [1] was determined as 97.1%. `Cc1cccc(S/C(=N\c2ccccc2[N+](=O)[O-])N(Cc2ccccc2)Cc2cccc(O)c2)c1` [Cmpd 1146] gave an inhibition of growth at 177.6 µg/mL under setting [2] of 56.4%. Consider `COc1ccc(C)cc1/N=C(\Sc1cccc(C)c1)N(Cc1ccccc1)Cc1cccc(O)c1` [Cmpd 1149], for which, under setting [1], the inhibition of growth at 177.6 µg/mL was found to be 76%. Same read-out and setting: then `Cc1cccc(S/C(=N/c2ccc(Cl)c(C(F)(F)F)c2)N(Cc2ccccc2)Cc2cccc(O)c2)c1` [Cmpd 1153], with 62.7%.

Under setting [2], `Cc1cccc(S/C(=N/c2ccc(OC(F)(F)F)cc2)N(Cc2ccccc2)Cc2cccc(O)c2)c1` [Cmpd 1155] registered an inhibition of growth at 177.6 µg/mL of 49.4%. As for `Cc1cccc(S/C(=N\c2ccc(F)c(F)c2)N(Cc2ccccc2)Cc2cccc(O)c2)c1` [Cmpd 1156], 177.6 µg/mL produced 59.5% inhibition of growth under setting [1]. Still for that read-out and setting: for `Cc1cccc(S/C(=N\Cc2ccc(F)cc2)N(CCc2ccc(Cl)cc2)Cc2ccc(O)cc2)c1` [Cmpd 1164] the value was 72.2%; for `Cc1cccc(S/C(=N\c2ccc(C(F)(F)F)cc2)N(CCc2ccc(Cl)cc2)Cc2ccc(O)cc2)c1` [Cmpd 1167], 94.3%; for `Cc1cccc(S/C(=N\c2ccc(Cl)c([N+](=O)[O-])c2)N(CCc2ccc(Cl)cc2)Cc2ccc(O)cc2)c1` [Cmpd 1183], 62.7%. Consider `Cc1cccc(S/C(=N\c2ccccc2[N+](=O)[O-])N(CCc2ccc(Cl)cc2)Cc2ccc(O)cc2)c1` [Cmpd 1186], for which, under setting [2], at 177.6 µg/mL the inhibition of growth was 52.9%. Regarding `Cc1cccc(S/C(=N\c2ccc(Cl)c(C(F)(F)F)c2)N(CCc2ccc(Cl)cc2)Cc2ccc(O)cc2)c1` [Cmpd 1193], the inhibition of growth at 177.6 µg/mL under setting [2] is 53.6%. The molecule `Cc1ccc(S/C(=N\c2ccc(Cl)c(C(F)(F)F)c2)N(Cc2ccc(O)cc2)Cc2ccc(Cl)c(Cl)c2)cc1` [Cmpd 1233] gave an inhibition of growth at 177.6 µg/mL under setting [1] of 61.5%. On to `Cc1ccc(S/C(=N\Cc2ccccc2)N(Cc2cccc(O)c2)CC2CCCCC2)c(C)c1` [Cmpd 1241], for which the inhibition of growth at 177.6 µg/mL under setting [1] came to 68.2%. As for `Cc1cccc(C/N=C(\Sc2ccc(C)cc2C)N(Cc2cccc(O)c2)CC2CCCCC2)c1` [Cmpd 1242], under setting [2], 177.6 µg/mL produced 54.8% inhibition of growth.

For `Cc1ccc(S/C(=N\Cc2ccc(F)cc2)N(Cc2cccc(O)c2)CC2CCCCC2)c(C)c1` [Cmpd 1244], 177.6 µg/mL produced 53.8% inhibition of growth under setting [2]. Under setting [2], `Cc1ccc(S/C(=N\c2ccc(F)cc2F)N(Cc2cccc(O)c2)CC2CCCCC2)c(C)c1` [Cmpd 1245] gave an inhibition of growth at 177.6 µg/mL of 53.8%. Take `Cc1ccc(S/C(=N\c2ccc(F)c(Cl)c2)N(Cc2cccc(O)c2)CC2CCCCC2)c(C)c1` [Cmpd 1254]: 177.6 µg/mL produced 62.1% inhibition of growth under setting [1]. On the same count and under the same terms, for `CCc1ccc(/N=C(\Sc2ccc(C)cc2C)N(Cc2cccc(O)c2)CC2CCCCC2)cc1` [Cmpd 1260] the value was 57.3%. The molecule `CCOc1ccc(/N=C(/Sc2ccc(C)cc2C)N(Cc2cccc(O)c2)CC2CCCCC2)cc1` [Cmpd 1261] returned an inhibition of growth at 177.6 µg/mL under setting [2] of 51.9%.

Under setting [1], `Cc1ccc(S/C(=N/c2ccc(F)c([N+](=O)[O-])c2)N(Cc2cccc(O)c2)CC2CCCCC2)c(C)c1` [Cmpd 1262] registered an inhibition of growth at 177.6 µg/mL of 67.2%. The molecule `Cc1ccc(S/C(=N/c2ccc(Cl)c([N+](=O)[O-])c2)N(Cc2cccc(O)c2)CC2CCCCC2)c(C)c1` [Cmpd 1263] yielded an inhibition of growth at 177.6 µg/mL under setting [2] of 56.7%. In the case of `Cc1ccc(S/C(=N\c2ccc(Cl)cc2)N(Cc2cccc(O)c2)CC2CCCCC2)c(C)c1` [Cmpd 1265], under setting [1], the inhibition of growth at 177.6 µg/mL came out at 88.3%.

With `Cc1ccc(S/C(=N/c2ccc(Cl)c(C(F)(F)F)c2)N(Cc2cccc(O)c2)CC2CCCCC2)c(C)c1` [Cmpd 1273], the inhibition of growth at 177.6 µg/mL under setting [2] is 52.2%. `Cc1ccc(S/C(=N\c2ccc(F)c(F)c2)N(Cc2cccc(O)c2)CC2CCCCC2)c(C)c1` [Cmpd 1276] displayed an inhibition of growth at 177.6 µg/mL under setting [1] of 57.3%.

Under setting [1], `COCCN(Cc1cccc(O)c1)/C(=N\c1ccccc1F)Sc1ccc(C)cc1C` [compound 107] displayed an inhibition of growth at 177.6 µg/mL of 75.8%.

What is called inhibition of growth is the percentage by which the read-out fell short of the control. Higher therefore signals strong suppression.
